Measured values taken from patent publication US20150309031A2, “COMPOSITIONS AND METHODS FOR PROGNOSIS AND TREATMENT OF CANCER” (NOVAZOI THERANOSTICS, priority 2013, published 2015).

Assays:
Type in all cases: cell-based
[1] = test system: adult human dermal fibroblasts (HDF); assay: subG1 (hypodiploid) fraction by flow cytometry, HDFs
231 cells = assay: Centrosome amplification (CA) by microscopy, 231 cells; details: 25 μM
Method: Consequently, CA was assessed in cultures treated with different concentrations of declustering drugs for 6, 12, 18, or 24 h and untreated controls via microscopy. […] The peak percent CA detected over 24 h is shown in FIG. 6 (only statistically significant (P<0.05) increases over control values are represented in the Figures). Representative confocal micrographs of CA in interphase and mitotic cells, both control and drug treated, are depicted in FIG. 7. […] To better understand the “potency” of drug-induced CA with time, the average fold change in CA over controls over 24 h was assessed (FIG. 5A), whereby the extent of CA across time points (i.e., 6, 12, 18, and 24 h) was averaged and then divided by the extent of CA in control (i.e., 0 h). […] For Nos and BN, there was no major difference in CA levels in interphase versus mitotic cells.

PC3 cells = assay: subG1 (hypodiploid) fraction by flow cytometry, PC3 cells
Method: (§1) Trypsinized cells were resuspended in PBS at 10^6 cells/ml. Cells were then fixed by addition of ice-cold 70% ethanol. Ethanol-fixed cells were kept overnight at 4° C. before staining. Cells were pelleted and washed twice with PBS. Cell pellets were incubated for an hour at room temperature with mouse anti-MPM-2 antibody (Millipore, Mass., USA), followed by 1 h incubation with Alexa-488 anti-mouse secondary antibody (Life Technologies, NY, USA). Finally cells were washed, pelleted and resuspended in propidium iodide-containing isotonic buffer (0.1 mg/mL) and 0.5% Triton X-100. Cell cycle distribution was determined by flow cytometry using an LSR Fortessa Flow cytometer (BD Biosciences, CA, USA) and analyzed using Flowjo software (Tree Star, OR, USA). […] The duration, highest degree, and rapidity of onset of MA varied between drugs, drug concentrations, and cell lines (FIGS. 2A, 2B). In general, the maximum MA achieved was less pronounced in Nos- and PJ-treated cells (FIGS. 2A, 2B). Drug-induced onset of MA was corroborated by substantial increases in cyclin B1 levels in all cell lines (FIG. 2C). […] Instances where the subG1 fraction was elevated without cleaved caspase-3 may either represent caspase-independent cell death or the presence of hypodiploid cells whose fate is unclear.

HeLa cells = assay: subG1 (hypodiploid) fraction by flow cytometry, HeLa cells
Method: as §1

[2] = test system: human dermal fibroblasts (HDFs); assay: Centrosome amplification (CA) by microscopy, HDFs
Method: (§2) Consequently, CA was assessed in cultures treated with different concentrations of declustering drugs for 6, 12, 18, or 24 h and untreated controls via microscopy. Centrosomes were identified by γ-tubulin and centrin-2 colocalization at discrete foci. […] The peak percent CA detected over 24 h is shown in FIG. 6 (only statistically significant (P<0.05) increases over control values are represented in the Figures). Representative confocal micrographs of CA in interphase and mitotic cells, both control and drug treated, are depicted in FIG. 7. No significant correlations between the degree of CA (FIG. 5A) and the expression levels of PLK4, Cyclin E, and Aurora A were found (FIG. 4).
(§3) To determine whether the CA-inducing activity of declustering drugs is restricted to cancer cells, two non-malignant cell lines, mammary fibrocystic (MCF10A) cells and adult human dermal fibroblasts were treated with these drugs. Neither one of RBN, GF or PJ induced CA or cell death (Table 8) in these cell lines. […] In comparison, 10 and 25 μM RBN increased peak CA over controls in interphase cells (p<0.001 and p=0.001, respectively), with the lower concentration dramatically augmenting peak CA to 56% of cells versus 15% for the higher dose (FIG. 9B). Only 10 but not 25 μM RBN increased the extent of CA in mitotic cells, and this upregulation was only slight (10%, p=0.041).

MDA-MB-231 (231) cells = assay: subG1 (hypodiploid) fraction by flow cytometry, 231 cells
Method: as §1

[3] = test system: mammary fibrocystic (MCF10A) cells; assay: subG1 (hypodiploid) fraction by flow cytometry, MCF10A cells; details: for change of peak subG1 percent compared to controls (in words): MCF10A cells; for Peak subG1 percent over 48 h: MCF10A
MCF10A cells = assay: Centrosome amplification (CA) by microscopy, MCF10A cells
Method: as §2, §3

HDFs and MCF10A cells = assay: Spindle multipolarity (MP) in non-malignant cell lines

SMILES: COc1ccc2c(c1OC)C(=O)O[C@@H]2[C@H]1c2c(cc3c(c2OC)OCO3)CCN1C [Nos, noscapine]
- Peak subG1 percent over 48 h ([1]; 10 μM): 14.8%
- Peak subG1 percent over 48 h ([1]; 25 μM): 11.2%
- induction of significant CA (231 cells): failed to induce significant CA
- Peak subG1 percent over 48 h (PC3 cells; 10 μM): 29.9%
- Peak subG1 percent over 48 h (PC3 cells; 25 μM): 32.7%
- Peak subG1 percent over 48 h (HeLa cells; 10 μM): 25.0%
- Peak subG1 percent over 48 h (HeLa cells; 25 μM): 50.1%
- change of CA over controls (in words) ([2]; any concentration or time point assessed): did not significantly increase the extent of CA over controls
- Peak subG1 percent over 48 h (MDA-MB-231 (231) cells; 10 μM): 26.3%
- Peak subG1 percent over 48 h (MDA-MB-231 (231) cells; 25 μM): 43.9%
- change of peak subG1 percent compared to controls (in words) [3]: did not cause a significant increase in peak subG1 percent compared to controls
- Peak subG1 percent over 48 h ([3]; 10 μM): 4.1%
- Peak subG1 percent over 48 h ([3]; 25 μM): 4.2%
- change of CA over control levels (in words) (MCF10A cells; interphase and mitotic cells, over 24 h): neither concentrations of Nos or BN significantly increased CA over control levels

SMILES: COC1=CC(=O)C[C@@H](C)[C@]12Oc1c(Cl)c(OC)cc(OC)c1C2=O [GF, griseofulvin]
- Peak subG1 percent over 48 h ([1]; 25 μM): 32.9%
- Peak subG1 percent over 48 h ([1]; 50 μM): 38.3%
- Peak subG1 percent over 48 h (PC3 cells; 25 μM): 33.7%
- Peak subG1 percent over 48 h (PC3 cells; 50 μM): 39.5%
- maximum subG1 fraction relative to control (PC3 cells; 50 μM): 16.3 × control
- induction of MP over control levels (HDFs and MCF10A cells): significantly induce MP over control levels
- Peak subG1 percent over 48 h (HeLa cells; 25 μM): 59.5%
- Peak subG1 percent over 48 h (HeLa cells; 50 μM): 79.0%
- maximum subG1 fraction relative to control (HeLa cells; 50 μM): 4.3 × control
- peak CA in interphase cells ([2]; interphase, 25 and 50 μM): 14-15%
- Peak subG1 percent over 48 h (MDA-MB-231 (231) cells; 25 μM): 62.0%
- maximum subG1 fraction relative to control (MDA-MB-231 (231) cells; 25 μM): 6.4 × control
- Peak subG1 percent over 48 h (MDA-MB-231 (231) cells; 50 μM): 60.0%
- change of peak subG1 percent compared to controls (in words) [3]: did increase peak SubG1 in MCF10A cells compared to controls
- Peak subG1 percent over 48 h ([3]; 25 μM): 22.7%
- Peak subG1 percent over 48 h ([3]; 50 μM): 35.1%
- peak interphase CA (MCF10A cells; interphase, 25 and 50 μM): 13-16%
- change of CA in mitotic cells (in words) (MCF10A cells; mitotic, 25 and 50 μM): no increase was observed in mitotic cells
